According to patent US9901615B2, “Method for treatment of gastric ulcers” (priority 2015, dated 2018):
Where no end group is shown, it is not given here.

How the values were obtained:
H. pylori ATCC 43504 = format: cell-based, Helicobacter pylori
Method: (§1) H. pylori cells undergoing exponential growth were suspended in sterile phosphate-buffered saline (PBS), and adjusted to 0.05 OD using BHI broth; the inoculum was dispensed onto a microtitre plate. Peptide TP4 was prepared at various concentrations (0.04 to 50 μg mL-1) using PBS. Antibiotic resistant clinical isolate CI-HC-028 and three reference strains were used for susceptibility testing. The MIC was defined as the lowest concentration of the drug at which there was no visible growth. For quality control and comparative analyses, the susceptibility of all four H. pylori strains to the antibiotics amoxicillin, clarithromycin, and metronidazole were also examined.

H. pylori ATCC 43629 = format: cell-based, Helicobacter pylori
Method: as §1

H. pylori ATCC 700392 = format: cell-based, Helicobacter pylori
Method: as §1

[1] = system: H. pylori clinical isolate CI-HC-028; experiment: Anti-H. pylori assessment in vitro (MIC), Example 2; format: cell-based, Helicobacter pylori; details: NE: No effect
Method: as §1

H. pylori [2] = experiment: Dose and time-dependent killing by TP4; format: cell-based, Helicobacter pylori; details: at 2×MIC
Method: (§2) TP4 peptide solutions (100 μl) at concentrations corresponding to ¼, ½, 1, 2, and 4 fold the MIC were prepared and added to an equal volume of solution containing H. pylori counts of approximately 10^7 CFU mL-1 onto a microtitre plate. The plates were incubated at 37° C., and samples were collected at 1, 3, 6, 12, and 24 h and plated with appropriate dilutions onto blood agar plates; bacterial counts were enumerated and expressed as mean log (CFU mL-1) with standard error.

H. pylori [3] = experiment: Development of drug resistance on passage at sub-inhibitory doses; format: cell-based, Helicobacter pylori; details: passages at sub-inhibitory doses in vitro
Description: A major driver of drug resistance development is inappropriate antibiotic use and poor compliance with therapeutic regimens. 28 Here, we established a model for simulating conditions of drug resistance emergence: bacteria were exposed to sub-inhibitory doses of antibiotics (AMOX, CLRN, METZ), or peptide TP4 in vitro (see supplementary material methods).

[4] = system: resistant clinical isolate CI-HC-028; experiment: Time-based susceptibility of resistant isolate to TP4 and antibiotics; format: cell-based, Helicobacter pylori; details: CI-HC-028, at MIC
Method: as §2
The bactericidal activities of TP4 and conventional antibiotics against resistant clinical isolate CI-HC-028 were compared. Certain resistant strains of H. pylori was previously reported to be resistant to metronidazole and clarithromycin 27. […] Thus, there is no correlation between multidrug resistant (MDR) phenotype and vulnerability to TP4.

[5] = Sub-acute oral toxicity of TP4; format: in vivo, C3H/HeN mice; details: 3-fold therapeutic doses orally for 14 days, observed days 1 to 28
Method: (§3) Acute toxicity was assessed in C3H/HeN mice with 6 animals per group, by single oral administration of TP4 (125 mg/kg). […] Subacute toxicity: animals were administered with TP4 (600 μg dose/day) for 14 days. During dose administration, the animals were observed every day for any signs of toxicity for 28 days test period. The morbidity, mortality, and other clinical signs were recorded and assessed.

[6] = Eye irritation test of TP4 in New Zealand White rabbits; format: in vivo; details: for ocular appearance: rabbits treated with 50 mg/kg TP4 or SDS for 7 days, observed daily (FIG. 17A); for Abnormality iris, grading / Chemosis, grading / Conjunctivae redness, grading / Corneal opacity, grading: rabbits, OECD 405 grading
Method: Healthy young adults rabbit eyes were treated with TP4, PBS (vehicle control), or 0.1% SDS (positive control). […] […] Clinical signs were recorded during the test period, and grades were assigned for ocular reactions during examination.

[7] = Acute oral toxicity of TP4; design: species or system C3H/HeN mice; details: single oral dose, 10-fold the in vivo therapeutic dose, 24 hours
Method: as §3

Dermal toxicity of TP4 = format: in vivo, C3H/HeN mice; details: for appearance of the skin: mice, 48 h post-exposure, 125 mg/kg TP4 or 20% SDS (FIG. 17B)
Method: TP4 (125 mg/kg) was applied onto the mouse skin (topical).

[8] = Eye irritation test of Epi-1 in rabbits; details: for Reversibility: 7 days then recovery
Method: This study used healthy young adults of the New Zealand white albino rabbit breed. […] The eyes were examined on days 1, 3, 5, and 7, and then allowed to recover until day 14; at this time, clinical observation scores were recorded, and grades assigned for ocular reactions observed during each examination.

H. pylori [9] = experiment: Transmission electron microscopy (TP4); format: cell-based, Helicobacter pylori; details: 2 h post exposure
Method: Transmission electron microscopy (TEM) was used to examine the TP4 mechanism of action on H. pylori, overall cell morphology, TP4 translocation into H. pylori, and interaction of TP4 with internal targets. H. pylori overnight cultures from BHI-blood agar plates were collected, and 0.1 OD inocula were incubated with TP4, Amoxicillin, and/or PBS (PBS only: negative control). […] The cells were then fixed and processed for TEM using previously described methods, with some modifications. Briefly, cells were dehydrated in a graduated series of ethanol, followed by resin polymerization at 65° C. for 3 days. An EM ultramicrotome was used to slice thin sections of 70- to 80-nm thickness from the polymerized blocks, which were then loaded on 400-mesh copper grids. The sections were post stained with 2% uranyl acetate for 15 min and then lead citrate for 5 min, before being mounted for observation using an FEI Tecnai G2 F20 S-TWIN transmission electron microscope (FEI Company, Hillsboro, Oreg.) operating at 80 keV. […] Each grid was scrutinized with the same settings. Images were recorded with a 4MP SPOT Insight charge-coupled-device (CCD) camera.

H. pylori [10] = experiment: Transmission electron microscopy (Epi-1); format: cell-based, Helicobacter pylori
Method: Transmission electron microscopy was used to examine Epi-1 induced morphological changes of H. pylori. The samples were fixed and processed as previously described. All samples were examined with an FEI Tecnai G2 F20 S-TWIN transmission electron microscope (FEI Company, Hillsboro, Oreg.) operating at an accelerating voltage of 80 kV. Images were recorded with a charge-coupled device camera at various magnifications.

[11] = 2.5 mg applied to skin, daily for 7 days, Balb/c mice
Method: Dermal toxicity was assessed in Balb/c mice, through administering daily doses of Epi-1 (2.5 mg/animal) for 7 days [40, 41]. Animals were kept under observation for a minimum of 48 h. Skin abnormalities were recorded.

[12] = Acute oral toxicity of Epi-1; format: in vivo; details: 125 mg/kg, mice
Method: Acute oral toxicity was assessed in mice with 6 animals per group, by single oral administration of Epi-1 at 125 mg/kg body weight. Animals were placed under observation for about 48 hr. The mortality, morbidity rate, and clinical signs were recorded.

[13] = Sub-acute oral toxicity of Epi-1; format: in vivo, mice
Method: Sub-acute oral toxicity was assessed with over a test period of 14 days in which mice were given 600 μg/mouse/day. During the study period, animals were observed daily for clinical signs and mortality.

## FIHHIIGGLFSAGKAIHRLIRRRRR [TP4, Nile tilapia piscidin 4] [listing 1 of 2 here]
H. pylori ATCC 43504
  MIC: 1.5 to 3 µg/mL
H. pylori ATCC 43629
  MIC: 1.5 to 3 µg/mL
H. pylori ATCC 700392
  MIC: 1.5 to 3 µg/mL
[1]
  MIC: 1.5 to 3 µg/mL
H. pylori [2]
  dose dependent effect against H. pylori (killing): 99.99%

## CC[C@H]1OC(=O)[C@H](C)[C@@H](O[C@H]2C[C@@](C)(OC)[C@@H](O)[C@H](C)O2)[C@H](C)[C@@H](O[C@@H]2O[C@H](C)C[C@H](N(C)C)[C@H]2O)[C@](C)(OC)C[C@@H](C)C(=O)[C@H](C)[C@@H](O)[C@]1(C)O [clarithromycin]
H. pylori [3]
  drug resistance index (MICp/MICs): gradually increased from passage 3 to the last passage
[4]
  time taken to 90% reduction: > 24 h

## FIHHIIGGLFSAGKAIHRLIRRRRR [TP4, Nile tilapia piscidin 4] [listing 2 of 2 here]
[5]
  clinical complications, sub-acute oral toxicity: did not induce clinical complications
[6]
  ocular appearance: no ocular lesions were detected
[6]; Day 1
  Abnormality iris, grading: 0
  Chemosis, grading: 0
  Conjunctivae redness, grading: 0
  Corneal opacity, grading: 0
[6]; Day 3
  Abnormality iris, grading: 0
  Chemosis, grading: 0.1
  Conjunctivae redness, grading: 0
  Corneal opacity, grading: 0
[6]; Day 5
  Abnormality iris, grading: 0
  Chemosis, grading: 0.1
  Conjunctivae redness, grading: 0.1
  Corneal opacity, grading: 0.1
[6]; Day 7
  Abnormality iris, grading: 0
  Chemosis, grading: 0.1
  Conjunctivae redness, grading: 0
  Corneal opacity, grading: 0.1
[6]; Recovery, Day 14
  Abnormality iris, grading: 0
  Chemosis, grading: 0
  Conjunctivae redness, grading: 0
  Corneal opacity, grading: 0
[7]
  clinical signs, acute oral toxicity: did not exhibit any abnormal clinical signs
Dermal toxicity of TP4; dermal exposure, 14 days observation period
  dermal toxicity: No mortality or damaging effects were observed
Dermal toxicity of TP4
  appearance of the skin: no obvious lesions were observed

## QLQGKQVSGEVVQKVLQELIQSVAKP [TP5]
H. pylori ATCC 43504
  MIC: >12 µg/mL
H. pylori ATCC 43629
  MIC: >12 µg/mL
H. pylori ATCC 700392
  MIC: >12 µg/mL
[1]
  MIC: >12 µg/mL

## CCCCCCCCCCCCOS(=O)(=O)[O-].[Na+] [SDS, reference compound]
[6]
  ocular appearance: severe lacrimation, swelling of the eyelids, and elevated blood vessels in conjunctivae
[6]; Day 1
  Abnormality iris, grading: 0
  Chemosis, grading: 1.5
  Conjunctivae redness, grading: 1
  Corneal opacity, grading: 1
[6]; Day 3
  Abnormality iris, grading: 0
  Chemosis, grading: 1.5
  Conjunctivae redness, grading: 1
  Corneal opacity, grading: 1
[6]; Day 5
  Abnormality iris, grading: 0
  Chemosis, grading: 2
  Conjunctivae redness, grading: 1
  Corneal opacity, grading: 1
[6]; Day 7
  Abnormality iris, grading: 0
  Chemosis, grading: 2
  Conjunctivae redness, grading: 1
  Corneal opacity, grading: 1
[6]; Recovery, Day 14
  Abnormality iris, grading: 0
  Chemosis, grading: 1.5
  Conjunctivae redness, grading: 0.5
  Corneal opacity, grading: 0.5
[8]; rabbit eye, 7 days
  Corneal opacity, Grade: 2
  Redness of conjunctivae, Grade: 1
[8]; rabbit eye
  Reversibility: No
[8]; rabbit, in vivo
  Iris lesion, Grade: 0
Dermal toxicity of TP4
  appearance of the skin: no obvious lesions were observed

## FDWDSVLKGVEGFVRGYF [TP1]
H. pylori ATCC 43504
  MIC: >12 µg/mL
H. pylori ATCC 43629
  MIC: >12 µg/mL
H. pylori ATCC 700392
  MIC: >12 µg/mL

## CC1(C)S[C@@H]2[C@H](NC(=O)[C@H](N)c3ccc(O)cc3)C(=O)N2[C@H]1C(=O)O [amoxicillin]
H. pylori [3]
  drug resistance index (MICp/MICs): increased slightly after passage 6, and remained constant thereafter
[4]; within 24 hr
  killing: 90%
H. pylori [9]
  ultrastructure of H. pylori cells (TEM): appeared as ‘ghost’ cells, with loose outer membranes
H. pylori [10]
  morphology of H. pylori cells (TEM): low percentage of coccoid morphology

## Cc1ncc([N+](=O)[O-])n1CCO [metronidazole]
H. pylori [3]
  drug resistance index (MICp/MICs): gradually increased from passage 3 to the last passage
[4]; 24 h
  course of cell count: initial decrease in cell count, but gradually lost activity

## FIHHIIGGLFSVGKHIHSLIHGH [TP3]
H. pylori ATCC 43504
  MIC: 8 to 12 µg/mL
H. pylori ATCC 43629
  MIC: 8 to 12 µg/mL
H. pylori ATCC 700392
  MIC: 8 to 12 µg/mL
[1]
  MIC: 8 to 12 µg/mL

## GFIFHIIKGLFHAGKMIHGLV-NH2 [Epi-1, Epinecidin-1]
[11]
  dermal irritation, lesions, clinical signs: did not cause any irritation, lesions, or clinical signs
[12]
  clinical abnormalities, morbidity, death: did not induce any clinical abnormalities, morbidity, or death
[8]; days 2 and 3, 1 mg/eye/day
  ocular signs: signs of lacrimation
[8]; rabbit eye, 7 days
  Corneal opacity, Grade: 0
  Iris lesion, Grade: 0
  Redness of conjunctivae, Grade: 0.1
[8]; rabbit eye
  Reversibility: yes
[13]; after acute and sub-acute oral administration
  whole blood biochemistry (GOT, GPT, BUN, CRE, TBIL, UA): no significant changes
[13]; sub-acute oral, 600 μg/mice
  clinical abnormalities, morbidity, death: did not induce any clinical abnormalities, morbidity, or death
